One sequence from publication PMC12000511, “Molecular basis for the assembly of the Vps5-Vps17 SNX-BAR proteins with Retromer” (Nature Communications, 2025) can be followed below.

Where no end group is shown, it is not given here.

For one assay, the target named is ctRetromer (Thermochaetoides thermophila, UniProt G0RZB5+G0S709). As to the kind of experiment: ITC, binding to ctRetromer. Also noted: species or system Chaetomium thermophilum. The conditions noted are these: ITC 25 °C, pH 7.5, 200 mM NaCl. As to the method: (§1) All the bacterial constructs were expressed in BL21(DE3) competent cells using standard isopropyl 1-thio-β-D-galactopyranoside induction or autoinduction method as described previously[39],[72],[73]. To obtain the Retromer trimer complex, the GST-tagged Vps29 and Vps35 co-expressed cell pellet were mixed with His-Vps26 and resuspended in lysis buffer containing 50 mM Tris-HCl pH 7.5, 200 mM NaCl, 5% glycerol, 50 μg/ml benzamidine and DNase I before passed through a Constant System TS-Series cell disruptor. […] For all constructs, the lysate was clarified by centrifugation and the supernatant was loaded onto either Talon® resin (Clonetech) or glutathione sepharose (GE healthcare) for initial purification. To obtain the correct stoichiometry ratio of the Retromer complex, both Talon® resin and glutathione sepharose (GE healthcare) were applied. […] The flow-through containing complex was further purified using size-exclusion chromatography (SEC) equilibrated with a buffer containing 50 mM Tris-HCl pH 7.5, 200 mM NaCl, 2 mM β-ME. […] To avoid the non-specific cleavage by the residual proteases such as thrombin, a tablet of protease inhibitor cocktail was added into the complex mixture. To remove the unbound fractions, the complex mixture was further purified using Superose 6 increase 10/300 GL column using the SEC buffer described above.
Sequence of ctRetromer (G0RZB5 entry or part of it): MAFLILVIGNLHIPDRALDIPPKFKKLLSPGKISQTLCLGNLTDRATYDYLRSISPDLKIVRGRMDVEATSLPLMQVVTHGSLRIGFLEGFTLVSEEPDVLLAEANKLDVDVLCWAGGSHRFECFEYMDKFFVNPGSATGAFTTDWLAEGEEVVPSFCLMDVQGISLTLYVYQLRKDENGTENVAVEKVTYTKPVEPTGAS
Sequence of ctRetromer (G0S709 entry or part of it): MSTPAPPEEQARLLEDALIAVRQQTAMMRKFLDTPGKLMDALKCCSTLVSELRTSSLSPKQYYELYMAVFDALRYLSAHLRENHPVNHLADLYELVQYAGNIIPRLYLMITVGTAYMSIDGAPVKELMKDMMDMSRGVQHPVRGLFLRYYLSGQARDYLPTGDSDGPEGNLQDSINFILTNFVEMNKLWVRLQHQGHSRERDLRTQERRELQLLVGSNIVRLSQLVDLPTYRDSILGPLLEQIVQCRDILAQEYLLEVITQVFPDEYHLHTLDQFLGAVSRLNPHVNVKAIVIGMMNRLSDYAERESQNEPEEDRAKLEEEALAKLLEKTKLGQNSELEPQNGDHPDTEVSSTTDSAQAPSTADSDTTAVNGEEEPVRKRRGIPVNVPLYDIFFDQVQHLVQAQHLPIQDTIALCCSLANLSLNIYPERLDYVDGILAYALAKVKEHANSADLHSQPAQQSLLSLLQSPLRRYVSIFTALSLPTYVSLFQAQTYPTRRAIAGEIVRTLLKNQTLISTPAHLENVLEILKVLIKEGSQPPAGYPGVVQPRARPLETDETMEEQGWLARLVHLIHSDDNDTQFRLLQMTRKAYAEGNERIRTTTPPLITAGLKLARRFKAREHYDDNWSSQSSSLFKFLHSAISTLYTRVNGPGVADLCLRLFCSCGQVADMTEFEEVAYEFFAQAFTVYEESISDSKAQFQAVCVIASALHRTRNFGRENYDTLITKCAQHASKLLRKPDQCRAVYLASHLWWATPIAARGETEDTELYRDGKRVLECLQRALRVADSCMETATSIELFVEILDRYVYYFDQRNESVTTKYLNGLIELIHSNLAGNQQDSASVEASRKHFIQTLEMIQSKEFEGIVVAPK
Sequence of ctRetromer (G0S0E6 entry or part of it, further chain): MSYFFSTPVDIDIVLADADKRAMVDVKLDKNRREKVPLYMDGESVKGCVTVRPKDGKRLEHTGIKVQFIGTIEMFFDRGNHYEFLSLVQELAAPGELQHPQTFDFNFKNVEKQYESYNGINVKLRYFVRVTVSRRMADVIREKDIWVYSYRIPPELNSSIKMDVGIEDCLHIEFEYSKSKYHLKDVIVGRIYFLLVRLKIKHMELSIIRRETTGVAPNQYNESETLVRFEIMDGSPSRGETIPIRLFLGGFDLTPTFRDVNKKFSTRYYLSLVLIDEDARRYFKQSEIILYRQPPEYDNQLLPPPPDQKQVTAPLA
In brief, the clarified lysate was loaded onto glutathione sepharose (GE healthcare) and eluted using elution buffer containing 50 mM Tris-HCl pH 7.5, 200 mM NaCl, 5% glycerol, 20 mM glutathione reduced and 50 μg/ml benzamidine. The flow-through was further purified using SEC as the final purification step. To avoid the degradation, the constructs containing N-terminal disordered parts of Vps5 and Vps17 were used in fresh and experiments were finished within 3 days after purification.
(§2) All the proteins used for ITC experiments were prepared in buffer containing 50 mM Tris-HCl pH 7.5, 200 mM NaCl, 2 mM β-ME. […] In all cases, the ITC titration sequence consisted of an initial 0.4 μl (not used in data processing) followed by 12 serial injections of 3.22 μl each with 180 s intervals. The resulting titration data were integrated with Malvern software package by fitting and normalized data to a single-site binding model, yielding the thermodynamic parameters Kd, ∆H, ∆G and −T∆S for all binding experiments. The stoichiometry was refined initially, and if the value was close to 1, then N was set to exactly 1.0 for calculation. Data presented are the mean of triplicate titrations for each experiment.
Background: ITC needs no label: the signal is the heat of the interaction.

Assay [1] deals with T1, mVps29 (Mus musculus, UniProt Q9QZ88).
T1 construct: GST (thrombin site) (N, cleaved yes); made in house; host or cells: E. coli BL21(DE3)
As to the kind of experiment: ITC, binding to mVps29. The conditions noted are these: ITC 25 °C, pH 7.5; mean of triplicate titrations. As to the method: as §1, §2

In assay [2] the target is T1, mVps29. In words: Crystal structure of mVPS29–ctVps5_71–80 peptide complex. The conditions noted are these: 1.7 Å, two molecules in asymmetric unit. As to the method:
All crystals were grown by the hanging-drop vapor diffusion method at 20 °C. […] Best quality crystals were obtained by mixing 1 µL of protein with 1 µL of well solution containing 40 mM KH2PO4, 16% PEG8000 and 5% glycerol at room temperature. Crystals grew after 13 days were cryoprotected in reservoir solution with additional 16% glycerol. X-ray diffraction data were carried out at the Australian Synchrotron MX2 beamline at 100 K.
Data collected from the Australian Synchrotron were indexed and integrated by AutoXDS and scaled using Aimless (version 0.7.4)[75]. Both structures were solved by molecular replacement using Phaser (version 2.5.6)[76] with native mVps29 structure as the initial model template. Both structures contain two copies of mVps29 in asymmetric unit with the electron density of peptide clearly visible. The refinement was performed using Phenix (version 1.19.2) with inspection of resulting model in Coot (version 0.8.9.2) guided by Fo–Fc difference maps[77]. Molprobity was used to evaluate the quality geometry of the refined structure. Molecular figures were generated using PyMOL (version 2.5.5) and structural comparison was performed using DALI and Foldseek[79],[80]. Sequence conservation was mapped on the structure with ConSurf server.

Turning to DDPLGPLGA [ctVps5_71–80 peptide], the “binding to ctRetromer” value at ctRetromer is “very weak binding”. Further, at mVps29 [1], the ΔG is -5.80 ± 0.10 kcal/mol and the ΔH is -8.00 ± 1.10 kcal/mol. In addition, the “binding site on VPS29” value at mVps29 [2] is “binds to the conserved hydrophobic groove of VPS29”.
